Reference: patent US6686382B2, “Sulfonamides and derivatives thereof that modulate the activity of endothelin” (Encysive Pharmaceuticals Inc., priority 1999, dated 2004)
pIC50: −log10 of the molar value.

These molecules were tested against T1, CYP2C9 (Homo sapiens, UniProt P11712) (assay: Cytochrome P450 enzyme assay, CYP2C9 (Gentest Supersomes, fluorometric)). Settings: human recombinant enzyme, mean IC50; read-out: CP450 2C9 IC50.
T1 construct: purchased Gentest Corporation P258
Assay type: in vitro ADME
Experimental: In vitro assays to determine the concentration of the compounds provided herein required for 50% inhibition of substrate metabolism (IC50) by different human cytochrome P450 enzymes (2C9, 2C19, 3A4) were conducted using human recombinant cytochrome P450 enzyme assays, developed by Gentest Corporation. These assays contain Gentest Supersomes™ (specific human cytochrome P450 enzyme, co-expressed with P450 reductase and cytochrome b5), a NADPH regenerating system, substrate and a concentration range of the compounds provided herein. The fluorescent product was the measured end point for these assays. IC50s were calculated using a four-parameter logistic equation with the bottom fixed at 0% inhibition and the top fixed at 100% inhibition. (Values are the mean IC50±SD when n is greater than 1.)
Assays were conducted in 96-well microtiter plates using fluorometric assays developed by Gentest Corporation. The 12 wells in each row were used for one inhibition curve. Wells 1 to 8 contained serial 1:3 dilutions of the test compound. Wells 9 to 12 contained no inhibitor and wells 11 and 12 were blanks for background fluorescence (stop solution was added before the enzyme). All concentration curves were performed in duplicate. Incubations were initiated by the addition of enzyme and substrate to the pre-warmed reaction mixture. After a specific incubation period, the reaction was stopped by the addition of stop solution. Metabolite production per well was determined by measuring fluorescence using a fluorescent plate reader. Detailed experimental procedures for each enzyme are listed below. See, generally, Methodology of a high throughput method for measuring cytochrome P450 inhibition (Gentest Corporation, Technical Bulletin); Crespi, C. L.; Miller, V. P.; and Penman, B. W. (1997) Anal. Biochem. 248:188-190; and Geungerich, F. P. (1997) Adv. Pharm. 43:7-35.
A 0.2 ml/well reaction mixture containing 2 pmol CYP2C9 (P258), 1.3 mM NADP^+, 3.3 mM glucose-6-phosphate, 3.3 mM magnesium chloride, 0.4 U/ml glucose-6-phosphate dehydrogenase and 75 μM 7-methoxy-4-trifluoromethylcoumarin in […] (pH 7.4), was incubated at 37° C. for 45 minutes. Sulfaphenazole, a standard inhibitor of CYP2C9, was serially diluted from the highest concentration of 10 μM and acted as a positive control. […] After incubation, the reaction was stopped by the addition of 75 μl stop solution (80% acetonitrile/20% 0.5 M Tris base) and fluorescence/well was measured using a Spectra Fluor (Tecan) or Cytoflour 2350 (Millipore) fluorescent plate reader. […]
The “% inhibition” was calculated as follows: [formula]
Concentration versus % inhibition curves were constructed in Prism (GraphPad, Inc.). The data was analyzed using “Top & Bottom Fixed” routine. […]

T1 sequence (P11712 whole entry): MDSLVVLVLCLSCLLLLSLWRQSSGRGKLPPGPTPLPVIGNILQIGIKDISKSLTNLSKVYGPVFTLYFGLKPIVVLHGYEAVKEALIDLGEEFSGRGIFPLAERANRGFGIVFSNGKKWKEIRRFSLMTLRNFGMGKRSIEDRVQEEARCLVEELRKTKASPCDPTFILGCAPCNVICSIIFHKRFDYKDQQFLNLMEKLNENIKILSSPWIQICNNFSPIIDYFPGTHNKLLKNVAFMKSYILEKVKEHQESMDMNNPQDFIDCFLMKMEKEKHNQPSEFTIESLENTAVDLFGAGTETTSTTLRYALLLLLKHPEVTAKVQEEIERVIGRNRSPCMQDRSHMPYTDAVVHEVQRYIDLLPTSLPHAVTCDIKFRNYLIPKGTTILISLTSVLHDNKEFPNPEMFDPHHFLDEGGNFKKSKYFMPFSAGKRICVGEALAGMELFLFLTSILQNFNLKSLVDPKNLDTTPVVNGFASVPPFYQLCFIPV

With `CC(=O)c1cc(C)cc(C)c1NC(=O)c1sccc1S(=O)(=O)Nc1onc(C)c1C` [Compound 7, N-(2-acetyl-4,6-dimethylphenyl)-3-{[(3,4 dimethyl-5-isoxazolyl)amino]sulfonyl}-2-thiophenecarboxamide] as the molecule, how does the pIC50 read?
The pIC50 was 5.12.

`Cc1cc(C)c(NC(=O)c2sccc2S(=O)(=O)Nc2onc(C)c2Cl)c(S(C)(=O)=O)c1` [Compound 42, 3-{[(4-chloro-3-methyl-5-isoxazolyl)amino]sulfonyl)-N-[2,4-dimethyl-6-(methylsulfonyl)phenyl]-2-thiophenecarboxamide] was tested. Which pIC50 did it give?
Its pIC50 is 5.28.

With `Cc1cc(C)c(NC(=O)c2sccc2S(=O)(=O)Nc2onc(C)c2Cl)c(Cl)c1` [Compound 34, N-(2-chloro-4,6-dimethylphenyl)-3-{[(4-chloro-3-methyl-5-isoxazolyl)amino]sulfonyl}2-thiophenecarboxamide] as the molecule, how does the pIC50 read?
Its pIC50 is 6.25.

How did the pIC50 turn out when `Cc1cc2c(cc1CC(=O)c1sccc1S(=O)(=O)Nc1onc(C)c1Cl)OCO2` [N-(4-chloro-3-methyl-5-isoxazolyl)-2-{[3,4-(methylenedioxy)-6-methylphenyl)acetyl]-thiophene-3-sulfonamide, reference compound] was run?
The pIC50 was 7.52.
